Consider 52 molecules from ChEMBL document CHEMBL1697821, “Development of a phospholipidosis database and predictive quantitative structure-activity relationship (QSAR) models” (Toxicol Mech Methods, 2008).

SMILES strings stand for the structures.

The subject of the data set is Phospholipidosis. Nature of the data set: Literature-mined public compounds from Kruhlak et al phospholipidosis modelling dataset.
With `CCC(c1ccccc1)c1c(O)c2ccccc2oc1=O` (configuration not stated) [PHENPROCOUMON], the Phospholipidosis entry is on record as “Negative: based on the absence of positive reported data from WMDD”. In the case of `CC(C)(N)Cc1ccccc1` [PHENTERMINE], the Phospholipidosis entry was “Positive: weak inducer based on presence of foamy macrophages and cytoplasmic vacuolations”.

As to `Cc1ccc(N(CC2=NCCN2)c2cccc(O)c2)cc1` [PHENTOLAMINE], the Phospholipidosis entry is “Negative: based on the absence of positive reported data from WMDD”. Consider `CC[C@@H]1C(=O)OC[C@@H]1Cc1cncn1C` [PILOCARPINE], for which the Phospholipidosis entry is “Negative: based on the absence of positive reported data from WMDD”. For `CC(C)NCC(O)COc1cccc2[nH]ccc12` (configuration not stated) [PINDOLOL] the value was “Negative: based on the absence of positive reported data from WMDD”. Consider `CC[N+]1(C)CCCC(OC(=O)C(O)(c2ccccc2)c2ccccc2)C1.[Br-]` (configuration not stated) [PIPENZOLATE BROMIDE], for which the Phospholipidosis entry is “Negative: based on the absence of positive reported data from WMDD”. For `CC(C(=O)O)c1ccc2c(c1)Cc1cccnc1O2` (configuration not stated) [PRANOPROFEN] the value was “Negative: based on the absence of positive reported data from WMDD”; for `C[C@]12C=CC(=O)C=C1CC[C@@H]1[C@@H]2[C@@H](O)C[C@@]2(C)[C@H]1CC[C@]2(O)C(=O)COC(=O)CCC(=O)O` [PREDNISOLONE HEMISUCCINATE], “Negative: based on the absence of positive reported data from WMDD”; for `CCCCC(=O)O[C@]1(C(=O)COC(C)=O)CC[C@H]2[C@@H]3CCC4=CC(=O)C=C[C@]4(C)[C@H]3[C@@H](O)C[C@@]21C` [PREDNISOLONE VALERATE ACETATE], “Negative: based on the absence of positive reported data from WMDD”. The same measure for `CC(C)NC[C@H](O)COc1ccc(O)cc1` [PRENALTEROL]: “Negative: based on the absence of positive reported data from WMDD”. For `CC(Cc1ccccc1)NCCC(c1ccccc1)c1ccccc1` (configuration not stated) [PRENYLAMINE] the value was “Positive: weak inducer based on presence of foamy macrophages and cytoplasmic vacuolations”; for `CCCN(CCC)S(=O)(=O)c1ccc(C(=O)O)cc1` [PROBENECID], “Negative: based on the absence of positive reported data from WMDD”. In the case of `CCN(CC)CCNC(=O)c1ccc(N)cc1` [PROCAINAMIDE], the Phospholipidosis entry is listed as “Negative: confirmed by electron microscopy”. Take `CCCN(CCC)C(=O)C(CCC(=O)O)NC(=O)c1ccccc1` (configuration not stated) [PROGLUMIDE]: the Phospholipidosis result is reported as “Negative: based on the absence of positive reported data from WMDD”. For `CN(C)CCCN1c2ccccc2Sc2ccccc21` [PROMAZINE] the value was “Positive: weak inducer based on presence of foamy macrophages and cytoplasmic vacuolations”. The same measure for `CC(CN1c2ccccc2Sc2ccccc21)N(C)C` (configuration not stated) [PROMETHAZINE]: “Positive: weak inducer based on presence of foamy macrophages and cytoplasmic vacuolations”; for `CC(C)[N+](C)(CCOC(=O)C1c2ccccc2Oc2ccccc21)C(C)C.[Br-]` [PROPANTHELINE BROMIDE]: “Negative: based on the absence of positive reported data from WMDD”. For `CCC(=O)c1ccc2c(c1)N(CC(C)N(C)C)c1ccccc1S2` (configuration not stated) [PROPIOMAZINE] the value was “Negative: based on the absence of positive reported data from WMDD”; for `CCC(=O)O[C@](Cc1ccccc1)(c1ccccc1)[C@H](C)CN(C)C` [PROPOXYPHENE], “Negative: based on the absence of positive reported data from WMDD”; for `CC(C)NCC(O)COc1cccc2ccccc12` (configuration not stated) [PROPRANOLOL], “Positive: weak inducer based on presence of foamy macrophages and cytoplasmic vacuolations”. For the molecule `CCCOC(=O)c1ccc(O)cc1` [PROPYLPARABEN], the Phospholipidosis entry is on record as “Negative: based on the absence of positive reported data from WMDD”. For `Cc1ccc2c(-c3ccccc3)nc(=O)n(C(C)C)c2c1` [PROQUAZONE], the Phospholipidosis entry was “Negative: based on the absence of positive reported data from WMDD”. For `C[C@@H]1O[C@@H](O[C@@H]2C=C3CC[C@@H]4[C@H](CC[C@]5(C)[C@@H](c6ccc(=O)oc6)CC[C@]45O)[C@@]3(C)CC2)[C@H](O)[C@H](O)[C@H]1O` [PROSCILLARIDIN] the value was “Negative: based on the absence of positive reported data from WMDD”; for `CNCCCC1c2ccccc2C=Cc2ccccc21` [PROTRIPTYLINE], “Negative: based on the absence of positive reported data from WMDD”; for `CC(O)Cn1cnc2c1c(=O)n(C)c(=O)n2C` (configuration not stated) [PROXYPHYLLINE], “Negative: based on the absence of positive reported data from WMDD”.

On to `CN[C@@H](C)[C@@H](O)c1ccccc1` [PSEUDOEPHEDRINE], for which the Phospholipidosis result is “Negative: based on the absence of positive reported data from WMDD”. The same measure for `Clc1ccc(C/C(=C\CN2CCCC2)c2ccccc2)cc1` [PYRROBUTAMINE]: “Negative: based on the absence of positive reported data from WMDD”.

`CCN(CC)CCCC(C)Nc1c2ccc(Cl)cc2nc2ccc(OC)cc12` (configuration not stated) [QUINACRINE]: the Phospholipidosis entry is listed as “Positive: strong inducer confirmed by electron microscopy”. The same measure for `CCC1NC(=O)c2cc(S(N)(=O)=O)c(Cl)cc2N1` (configuration not stated) [QUINETHAZONE]: “Negative: based on the absence of positive reported data from WMDD”; for `C=C[C@H]1C[N@@]2CC[C@H]1C[C@@H]2[C@@H](O)c1ccnc2ccc(OC)cc12` [QUINIDINE]: “Positive: weak inducer based on presence of foamy macrophages and cytoplasmic vacuolations”. For `CC(CN1CC(=O)NC(=O)C1)N1CC(=O)NC(=O)C1` (configuration not stated) [RAZOXANE] the value was “Negative: based on the absence of positive reported data from WMDD”; for `CC1=C(/C=C/C(C)=C/C=C/C(C)=C/CO)C(C)(C)CCC1` [RETINOL], “Negative: based on the absence of positive reported data from WMDD”; for `NC(=O)c1ncn([C@@H]2O[C@H](CO)[C@@H](O)[C@H]2O)n1` [RIBAVIRIN], “Negative: based on the absence of positive reported data from WMDD”. The same measure for `Cc1cc2nc3c(=O)[nH]c(=O)nc-3n(C[C@H](O)[C@H](O)[C@H](O)COP(=O)(O)O)c2cc1C` [RIBOFLAVIN 5'-PHOSPHATE]: “Negative: based on the absence of positive reported data from WMDD”. Turning to `Cc1cc2nc3c(=O)[nH]c(=O)nc-3n(C[C@H](O)[C@H](O)[C@H](O)CO)c2cc1C` [RIBOFLAVIN], the Phospholipidosis entry is listed as “Negative: based on the absence of positive reported data from WMDD”. For `CCn1nc(C)c2c1C(c1ccccc1)=NCC(=O)N2` [RIPAZEPAM] the value was “Negative: based on the absence of positive reported data from WMDD”; for `CN(C)CCc1c[nH]c2ccc(Cn3cncn3)cc12` [RIZATRIPTAN], “Negative: based on the absence of positive reported data from WMDD”; for `CS(=O)(=O)c1ccc(C2=C(c3ccccc3)C(=O)OC2)cc1` [ROFECOXIB], “Negative: based on the absence of positive reported data from WMDD”.

In the case of `CCCC(=O)O[C@H]1[C@H](C)O[C@@H](O[C@H]2[C@H](N(C)C)[C@@H](O)[C@H](O[C@H]3[C@@H](CC=O)C[C@@H](C)[C@@H](O)/C=C/C=C/C[C@@H](C)OC(=O)C[C@@H](O)[C@@H]3OC)O[C@@H]2C)C[C@@]1(C)OC(=O)CC` [ROKITAMYCIN], the Phospholipidosis result is “Negative: based on the absence of positive reported data from WMDD”.

For the molecule `O=C(Oc1ccccc1C(=O)O)c1ccccc1O` [SALSALATE], the Phospholipidosis result was “Negative: based on the absence of positive reported data from WMDD”. For `C=CCC1(C(C)CCC)C(=O)NC(=O)NC1=O` (configuration not stated) [SECOBARBITAL] the value was “Negative: based on the absence of positive reported data from WMDD”; for `C#CCN(C)[C@H](C)Cc1ccccc1` [SELEGILINE], “Negative: based on the absence of positive reported data from WMDD”.

As for `O=C(O)c1cc(O)c2c(c1)[C@@H]([C@H]1c3cc(C(=O)O)cc(O)c3C(=O)c3c(O[C@@H]4O[C@H](CO)[C@@H](O)[C@H](O)[C@H]4O)cccc31)c1cccc(O[C@@H]3O[C@H](CO)[C@@H](O)[C@H](O)[C@H]3O)c1C2=O` [SENNOSIDE B], the Phospholipidosis entry is given as “Negative: based on the absence of positive reported data from WMDD”. For `CN[C@H]1CC[C@@H](c2ccc(Cl)c(Cl)c2)c2ccccc21` [SERTRALINE] the value was “Positive: weak inducer based on presence of foamy macrophages and cytoplasmic vacuolations”; for `OC[C@@H](O)[C@@H](O)[C@H](O)[C@@H](O)CO` [SORBITOL], “Negative: based on the absence of positive reported data from WMDD”. The same measure for `CC(C)NCC(O)c1ccc(NS(C)(=O)=O)cc1` (configuration not stated) [SOTALOL]: “Negative: confirmed by electron microscopy”.

Regarding `CN[C@@H]1[C@H](O)[C@H](NC)[C@H]2O[C@@]3(O)C(=O)C[C@@H](C)O[C@H]3O[C@@H]2[C@H]1O` [SPECTINOMYCIN], the Phospholipidosis result is “Positive: weak inducer based on presence of foamy macrophages and cytoplasmic vacuolations”. For `O=C1CSC2(CCN(CCCN3c4ccccc4Sc4ccc(Cl)cc43)CC2)N1` [SPICLOMAZINE] the value was “Negative: based on the absence of positive reported data from WMDD”; for `N=C(N)c1ccc(/C=C/c2ccc(C(=N)N)cc2)cc1` [STILBAMIDINE], “Positive: weak inducer based on presence of foamy macrophages and cytoplasmic vacuolations”. For `[H]/N=C(/N)N[C@H]1[C@H](O)[C@@H](O)[C@H](O[C@@H]2O[C@@H](C)[C@](O)(C=O)[C@H]2O[C@@H]2O[C@@H](CO)[C@H](O)[C@@H](O)[C@@H]2NC)[C@@H](N/C(N)=N\[H])[C@@H]1O` [STREPTOMYCIN] the value was “Negative: based on the absence of positive reported data from WMDD”; for `O=C1C[C@@H]2OCC=C3CN4CC[C@]56c7ccccc7N1[C@H]5[C@H]2[C@H]3C[C@H]46` [STRYCHNINE], “Negative: based on the absence of positive reported data from WMDD”; for `O=C(O)CCC(=O)O` [SUCCINIC ACID], “Negative: based on the absence of positive reported data from WMDD”.
